Measured values reported in US11267812B2 (Mirati Therapeutics, Inc., priority 2016, dated 2022).
Read-outs that look alike come from different tables or passages of the source.

Test system: Phospho-ERK in NCI-H358 cells expressing KRas G12C
Assay: Cellular inhibition of KRas G12C by Phospho-ERK measurement in NCI-H358 cells
Format: cell-based
Settings: Homo sapiens, read-out: IC50 (pERK(Thr202/Tyr204) normalized with GAPDH)
Procedure: The cellular inhibition of KRAs G12C by exemplary compounds of the present invention was determined by measuring the amount of a downstream marker of KRas activity, phosphorylated ERK (“Phospho-ERK”).
NCI-H358 cells (ATCC CRL-5807) express KRas G12C and were grown in RPMI medium supplemented with 10% fetal bovine serum, penicillin/streptomycin and 10 mM HEPES. Cells were plated in poly-D-Lysine coated 96-well plates at a concentration of 50,000 cells/well and allowed to attach for 8-12 hours. Diluted compounds were then added at a final concentration of 0.5% DMSO. After 3 hours, the medium was removed, 150 μL of 4% formaldehyde was added and the plates were incubated for 20 minutes. The plates were washed with PBS, and permeabilized using 150 μL of ice cold 100% methanol for 10 minutes. Non-specific antibody binding to the plates was blocked using 100 μL Licor Blocking Buffer (Li-Cor Biotechnology, Lincoln Nebr.) for 1 hour at room temperature. Positive control samples and samples lacking cells were parallel processed with test samples as standards.
The amount Phospho-ERK was determined using an antibody specific for the phosphorylated form of ERK and compared to the amount of GAPDH. Primary antibodies used for detection were added as follows: Phospho-ERK (Cell Signaling cs9101) diluted 1:500 and GAPDH (Millipore MAB374) diluted 1:5000 in Licor block+0.05% Tween 20. The plates were incubated for 2 hours at room temperature. The plates were washed with PBS+0.05% Tween 20.
Secondary antibodies used to visualize primary antibodies were added as follows: Anti-rabbit-680 diluted 1:1000 and Anti-mouse-800 diluted 1:1000 in Licor Block+0.050 Tween 20 and incubated for 1 hour at room temperature. The plates were washed with PBS+0.05% o Tween 20. A100 L aliquot of PBS was added to each well and the plates were read on a LICOR AERIUS plate reader.
The pERK(Thr202/Tyr204) signal was normalized with the GAPDH signal and percent of DMSO control values were calculated. IC50 values were generated using a 4 parameter fit of the dose response curve. Key: “A”≥0.001-≤1 μM; “B”[…] and ND=not determined.

[1] = NCI-H358 cells, 3 hours compound treatment

With `C=CC(=O)N1CCN(c2nc(OC[C@@H]3C[C@@H](O)CN3C)nc3c2CCN(c2cccc4ccccc24)C3)CC1CC#N` (stereo partly drawn) [Example 218, 2-(1-acryloyl-4-(2-(((2S,4R)-4-hydroxy-1-methylpyrrolidin-2-yl)methoxy)-7-(naphthalen-1-yl)-5,6,7,8-tetrahydropyrido[3,4-d]pyrimidin-4-yl)piperazin-2-yl)acetonitrile] the IC50 [1] was 1 to 1000 nM.
`C=CC(=O)N1CCN(c2nc(OCCN(C)C)nc3c2CCN(c2cc(O)cc4ccccc24)C3)[C@@H](C)C1` [Example 116, (S)-1-(4-(2-(2-(dimethylamino)ethoxy)-7-(3-hydroxynaphthalen-1-yl)-5,6,7,8-tetrahydropyrido[3,4-d]pyrimidin-4-yl)-3-methylpiperazin-1-yl)prop-2-en-1-one] showed an IC50 [1] of 1 to 1000 nM.
`C=CC(=O)N1CCN(c2nc(O[C@H](C)CN(C)C)nc3c2CCN(c2cc(O)cc4ccccc24)C3)CC1CC#N` (stereo partly drawn) [Example 150, 2-(1-acryloyl-4-(2-(((R)-1-(dimethylamino)propan-2-yl)oxy)-7-(3-hydroxynaphthalen-1-yl)-5,6,7,8-tetrahydropyrido[3,4-d]pyrimidin-4-yl)piperazin-2-yl)acetonitrile] was tested, and the IC50 [1] was 1 to 1000 nM.
In the case of `C=CC(=O)N1CCN(c2nc(OC[C@@H]3CCCN3C)nc3c2CCN(c2ccccc2C(F)(F)F)C3)C[C@@H]1CC#N` [Example 237, 2-((S)-1-acryloyl-4-(2-(((S)-1-methylpyrrolidin-2-yl)methoxy)-7-(2-(trifluoromethyl)phenyl)-5,6,7,8-tetrahydropyrido[3,4-d]pyrimidin-4-yl)piperazin-2-yl)acetonitrile 2,2,2-trifluoroacetate], the IC50 [1] is reported as 1 to 1000 nM.
For `C=CC(=O)N1CCN(c2nc(OCCN3CCCCC3)nc3c2CCN(c2cc(O)cc4ccccc24)C3)CC1` [Example 52, 1-[4-[7-(3-hydroxy-1-naphthyl)-2-[2-(1-piperidyl)ethoxy]-6,8-dihydro-5H-pyrido[3,4-d]pyrimidin-4-yl]piperazin-1-yl]prop-2-en-1-one], the IC50 [1] was 1 to 1000 nM.
`C=CC(=O)N1CCN(c2nc(OC[C@@H]3CCCN3C)nc3c2CCN(c2cc(O)cc4ccccc24)C3)CC1` [Example 127, (S)-1-(4-(7-(3-hydroxynaphthalen-1-yl)-2-((1-methylpyrrolidin-2-yl)methoxy)-5,6,7,8-tetrahydropyrido[3,4-d]pyrimidin-4-yl)piperazin-1-yl)prop-2-en-1-one] gave an IC50 (NCI-H358, 3 h) of 1 to 1000 nM.
In the case of `C=CC(=O)N1CCN(c2nc(OCCCCN(C)C)nc3c2CCN(c2cc(O)cc4ccccc24)C3)CC1` [Example 40, 1-(4-(2-(4-(dimethylamino)butoxy)-7-(3-hydroxynaphthalen-1-yl)-5,6,7,8-tetrahydropyrido[3,4-d]pyrimidin-4-yl)piperazin-1-yl)prop-2-en-1-one], the IC50 [1] is reported as 1 to 1000 nM.
With `C=CC(=O)N1CCN(c2nc(OCCN3CCCC[C@@H]3C)nc3c2CCN(c2cc(O)cc4ccccc24)C3)CC1` [Example 88, (S)-1-(4-(7-(3-hydroxynaphthalen-1-yl)-2-(2-(2-methylpiperidin-1-yl)ethoxy)-5,6,7,8-tetrahydropyrido[3,4-d]pyrimidin-4-yl)piperazin-1-yl)prop-2-en-1-one] the IC50 [1] was 1 to 1000 nM.
With `C=CC(=O)N1CCN(c2nc(OC[C@@H]3CCCN3C)nc3c2CCN(c2cccnc2C(F)(F)F)C3)CC1CC#N` (stereo partly drawn) [Example 226, 2-(1-acryloyl-4-(2-(((S)-1-methylpyrrolidin-2-yl)methoxy)-7-(2-(trifluoromethyl)pyridin-3-yl)-5,6,7,8-tetrahydropyrido[3,4-d]pyrimidin-4-yl)piperazin-2-yl)acetonitrile] the IC50 [1] was 1 to 1000 nM.
`C=CC(=O)N1CCN(c2nc(OC[C@@H]3CCCN3C)nc3c2CCN(c2cnccc2C(F)(F)F)C3)CC1CC#N` (stereo partly drawn) [Example 212, 2-(1-acryloyl-4-(2-(((S)-1-methylpyrrolidin-2-yl)methoxy)-7-(4-(trifluoromethyl)pyridin-3-yl)-5,6,7,8-tetrahydropyrido[3,4-d]pyrimidin-4-yl)piperazin-2-yl)acetonitrile] showed an IC50 [1] of 1 to 1000 nM.
Work on `C=CC(=O)N1CCN(c2nc(OCCN3CCC(C)CC3)nc3c2CCN(c2cc(O)cc4ccccc24)C3)CC1` [Example 92, 1-(4-(7-(3-hydroxynaphthalen-1-yl)-2-(2-(4-methylpiperidin-1-yl)ethoxy)-5,6,7,8-tetrahydropyrido[3,4-d]pyrimidin-4-yl)piperazin-1-yl)prop-2-en-1-one] yielded an IC50 [1] of 1 to 1000 nM.
`C=CC(=O)N1CCN(c2nc(OC[C@@H]3CCCN3C)nc3c2CCN(c2ccc(F)cc2C(F)(F)F)C3)CC1CC#N` (stereo partly drawn) [Example 276, 2-(1-acryloyl-4-(7-(4-fluoro-2-(trifluoromethyl)phenyl)-2-(((S)-1-methylpyrrolidin-2-yl)methoxy)-5,6,7,8-tetrahydropyrido[3,4-d]pyrimidin-4-yl)piperazin-2-yl)acetonitrile] showed an IC50 [1] of 1 to 1000 nM.
For `C=CC(=O)N1CCN(c2nc(OC[C@H]3CCCN3C)nc3c2CCN(c2cc(O)cc4ccccc24)C3)[C@@H](C)C1` [Example 203, 1-((S)-4-(7-(3-hydroxynaphthalen-1-yl)-2-(((R)-1-methylpyrrolidin-2-yl)methoxy)-5,6,7,8-tetrahydropyrido[3,4-d]pyrimidin-4-yl)-3-methylpiperazin-1-yl)prop-2-en-1-one], the IC50 [1] was 1 to 1000 nM.
Compound `C=CC(=O)N1CCN(c2nc(OC[C@@H]3CCCN3C)nc3c2CCN(c2ccc(F)c4ccccc24)C3)CC1CC#N` (stereo partly drawn) [Example 246, 2-[4-[7-(4-fluoro-1-naphthyl)-2-[[(2S)-1-methylpyrrolidin-2-yl]methoxy]-6,8-dihydro-5H-pyrido[3,4-d]pyrimidin-4-yl]-1-prop-2-enoyl-piperazin-2-yl]acetonitrile] has an IC50 [1] of 1 to 1000 nM.
In the case of `C=CC(=O)N1CCN(c2nc(OC[C@@H]3CCCN3CC)nc3c2CCN(c2cccc4ccccc24)C3)CC1CC#N` (stereo partly drawn) [Example 233, 2-(1-acryloyl-4-(2-(((S)-1-ethylpyrrolidin-2-yl)methoxy)-7-(naphthalen-1-yl)-5,6,7,8-tetrahydropyrido[3,4-d]pyrimidin-4-yl)piperazin-2-yl)acetonitrile], the IC50 [1] is reported as 1 to 1000 nM.
`CN1CCC[C@H]1COc1nc2c(c(N3CCN(C(=O)/C=C/CN4CCCCC4)[C@@H](CC#N)C3)n1)CCN(c1cccc3ccccc13)C2` [Example 236, 2-((S)-4-(2-(((S)-1-methylpyrrolidin-2-yl)methoxy)-7-(naphthalen-1-yl)-5,6,7,8-tetrahydropyrido[3,4-d]pyrimidin-4-yl)-1-(E-4-(piperidin-1-yl)but-2-enoyl)piperazin-2-yl)acetonitrile] was tested, and the IC50 [1] was 1 to 1000 nM.
`C=CC(=O)N1CCN(c2nc(OCCCN3C[C@@H]4C[C@H]3CO4)nc3c2CCN(c2cc(O)cc4ccccc24)C3)CC1` [Example 104, 1-(4-(2-(3-((1S,4S)-2-oxa-5-azabicyclo[2.2.1]heptan-5-yl)propoxy)-7-(3-hydroxynaphthalen-1-yl)-5,6,7,8-tetrahydropyrido[3,4-d]pyrimidin-4-yl)piperazin-1-yl)prop-2-en-1-one] was tested, and the IC50 [1] was 1 to 1000 nM.
Work on `C=CC(=O)N1CCN(c2nc(O[C@H](C)CN(C)C)nc3c2CCN(c2cc(O)cc4ccccc24)C3)CC1` [Example 19, (R)-1-(4-(2-((1-(dimethylamino)propan-2-yl)oxy)-7-(3-hydroxynaphthalen-1-yl)-5,6,7,8-tetrahydropyrido[3,4-d]pyrimidin-4-yl)piperazin-1-yl)prop-2-en-1-one] yielded an IC50 [1] of 1 to 1000 nM.
`C=CC(=O)N1CCN(c2nc(OC[C@@H]3C[C@H](F)CN3C)nc3c2CCN(c2cccc4ccccc24)C3)CC1CC#N` (stereo partly drawn) [Example 221, 2-(1-acryloyl-4-(2-(((2S,4S)-4-fluoro-1-methylpyrrolidin-2-yl)methoxy)-7-(naphthalen-1-yl)-5,6,7,8-tetrahydropyrido[3,4-d]pyrimidin-4-yl)piperazin-2-yl)acetonitrile] gave an IC50 [1] of 1 to 1000 nM.
Compound `C=CC(=O)N1CCN(c2nc(OCCCN3CCN(C)CC3)nc3c2CCN(c2cc(O)cc4ccccc24)C3)CC1` [Example 82, 1-(4-(7-(3-hydroxynaphthalen-1-yl)-2-(3-(4-methylpiperazin-1-yl)propoxy)-5,6,7,8-tetrahydropyrido[3,4-d]pyrimidin-4-yl)piperazin-1-yl)prop-2-en-1-one] has an IC50 [1] of 1 to 1000 nM.
`C=CC(=O)N1CCN(c2nc(OCCN3CCC[C@H](F)C3)nc3c2CCN(c2cc(O)cc4ccccc24)C3)CC1` [Example 111, (S)-1-(4-(2-(2-(3-fluoropiperidin-1-yl)ethoxy)-7-(3-hydroxynaphthalen-1-yl)-5,6,7,8-tetrahydropyrido[3,4-d]pyrimidin-4-yl)piperazin-1-yl)prop-2-en-1-one] gave an IC50 [1] of 1 to 1000 nM.
